In brackets after ≈: the same amount, converted by molar mass.
Assays:
Crabgrass = assay: Preliminary herbicide seed germination test (pre-emergent), crabgrass; assay type: in vivo, Digitaria sanguinalis; design: key: 5: no seedling emerged; 4: few seedlings emerged and/or very severe stunting; 3: moderate reduction in stand and/or moderate stunting.; 2: very slight reduction in stand and/or slight stunting; 1: no injury, seedlings appear no different with respect to stand or growth than untreated controls; details: ten to twelve days after application
Description: (§1) Suspensions of the test compounds were prepared by dissolving one gram of compound in 50 milliliters of acetone in which had been dissolved 0.1 gram (10 percent of the weight of compound) of an alkylphenoxyethanol sufactant, as an emulsifying or dispersing agent. The resulting solution was mixed into 160 milliliters of water to give roughly 200 milliliters of a suspension containing the compound in finely divided form. The thus prepared stock suspension contained 0.5 percent by weight of compound. The test concentrations employed in the tests described below were obtained by diluting the stock suspension with water. The test procedures were as follows:
(§2) The following seeds were used in this test:
Crabgrass--Digitaria sanguinalis
(§3) Two […] mixtures were prepared as follows:
(§4) Each of the above mixtures was rolled separately in 5 gallon containers for approximately one-half hour on ball mill to insure uniform mixing of seeds and soil. For each compound four 3-inch pots were filled with soil to within 11/2 inches of top of pots. To two of these pots were added 70 cc. of Mixture I. To the remaining 2 pots were added 70 cc. of Mixture II. The seed-soil mixture was tamped firmly, and the pots were removed to the greenhouse and watered lightly. About 2 hours after planting, 25 milliliters of the test formulation were added to one pot containing Mixture I and one pot containing Mixture II. An equal volume of a water solution containing acetone and an emulsifier in the same concentration as the herbicidal mixture but without the candidate herbicide was also added to each of the soil-seed mixtures. These pots are used as check or control units. The test compounds were formulated by diluting the stock suspension with water to obtain the desired concentration of the compound in parts per million of the final formulation. Each compound was tested at the same concentration. […] Ratings were made according to the following designations: […]

Bean = assay: Post-emergent herbicidal test, bean; assay type: in vivo; design: key: 1: no perceptible injury; 2: intermediate degrees of injury; 3: intermediate degrees of injury; 4: intermediate degrees of injury; 5: the plant was dead; details: 2500 parts per million, after ten days; for Post-emergent Herbicidal, Bean: Table II; for Post Emergent Herbicidal, Bean: Table III
Description: as §1
(§5) Experiments were also conducted to determine the phytotoxicity of representative compositions with respect to healthy fresh plants. Solutions of the compounds were prepared as described above to provide a concentration of 2500 parts per million of the test compound. The test plants were sprayed in accordance with the procedure described above for the Mite Foliage Spray Test so as to deliver approximately 100 milliliters of test solutions to the leaves of each plant tested. The sprayed plants and controls were set aside for approximately one hour to allow the solutions to dry and were then placed in the greenhouse. After ten days the plants were visually inspected to determine the extent of foliage injury. A rating of 1 indicates no perceptible injury; 5 indicates the plant was dead and ratings of 2, 3 and 4 indicate intermediate degrees of injury based upon the number and extent to which leaves were injured.

Corn = assay: Post-emergent herbicidal test, corn; assay type: in vivo; design: key: 1: no perceptible injury; 2: intermediate degrees of injury; 3: intermediate degrees of injury; 4: intermediate degrees of injury; 5: the plant was dead; details: 2500 parts per million, after ten days; for Post-emergent Herbicidal, Corn: Table II; for Post Emergent Herbicidal, Corn: Table III
Description: as §1, §5

[1] = test system: Red root pigweed (Amaranthus); assay: Preliminary herbicide seed germination test (pre-emergent), red root pigweed; assay type: in vivo, Amaranthus retroflexus; design: key: 5: no seedling emerged; 4: few seedlings emerged and/or very severe stunting; 3: moderate reduction in stand and/or moderate stunting.; 2: very slight reduction in stand and/or slight stunting; 1: no injury, seedlings appear no different with respect to stand or growth than untreated controls; details: ten to twelve days after application
Description: as §1, §2
Red root pigweed--Amaranthus retroflexus
as §3, §4

[2] = test system: egg of the two-spotted mite; assay: Mite Ovicide Test (eggs); assay type: in vivo, Tetranychus urticae (Koch); design: key to Miticidal, Egg: A: Excellent Control; B: Partial Control; No Control; details: for Miticidal, Egg: Table II, unhatched eggs after four days; for LC50: Tetranychus urticae, Table III, ppm required for a 50 percent kill of eggs, read-out: Miticidal LD50, Egg
Description: Suspensions of the test compounds were prepared by dissolving one gram of compound in 50 milliliters of acetone in which had been dissolved 0.1 gram (10 percent of the weight of compound) of an alkylphenoxyethanol sufactant, as an emulsifying or dispersing agent. The resulting solution was mixed into 160 milliliters of water to give roughly 200 milliliters of a suspension containing the compound in finely divided form. The thus prepared stock suspension contained 0.5 percent by weight of compound. The test concentrations employed in the tests described below were obtained by diluting the stock suspension with water. The test procedures were as follows: The test organism was the egg of the two-spotted mite (Tetranychus urticae (Koch)), as obtained from adults reared on […] bean plants under controlled conditions of 80±5° F. and 50±5 percent relative humidity. Heavily infested leaves from a stock culture were placed on the primary leaves of two bean plants six to eight inches in height growing in a two-and-a-half inch clay pot. Females were allowed to oviposit for a period of 48 hours and the leaves of the infested plants were dipped in a solution containing 800 parts of tetraethyl pyrophosphate per million parts of water in order to destroy the reproductory forms and thus prevent further egg laying. […] The plants were allowed to dry thoroughly. The test compounds were formulated by diluting the stock suspension with water to give a suspension containing varying amounts of test compound per million parts of final formulation. The potted plants (one pot per compound) were placed on a revolving turntable and sprayed with 100-110 milliliters of test compound formulation by use of a DeVilbis spray gun set at 40 spig. air pressure. This application which lasted 30 seconds, was sufficient to wet the plants to run-off. As a control, 100-110 milliliters of a water solution containing acetone and emulsifier in the same concentrations as the test compound formulation, but containing no test compound, were also sprayed on plants infested with eggs. The sprayed plants were held at 80±5° F. and 50±5 percent relative humidity for four days, after which a microscopic examination was made of unhatched (dead) and hatched (living) eggs. In these tests the pesticidal activity of the compounds against mites and mite eggs was rated as follows: Tests were conducted in accordance with the procedures given at pages 17 to 21 supra. The results are expressed in the same manner as used in Table II, except with respect to miticidal activity. For mite adult and mite egg comparison purposes, results are given in parts per million (ppm) required for a 50 percent kill of mites or eggs, respectively.

Mustard = assay: Preliminary herbicide seed germination test (pre-emergent), mustard; assay type: in vivo, Brassica pincea var. foliosa (Florida broadleaf); design: key: 5: no seedling emerged; 4: few seedlings emerged and/or very severe stunting; 3: moderate reduction in stand and/or moderate stunting.; 2: very slight reduction in stand and/or slight stunting; 1: no injury, seedlings appear no different with respect to stand or growth than untreated controls; details: ten to twelve days after application
Description: as §1, §2
Mustard--Brassica pincea var. foliosa (Florida broadleaf)
as §3, §4

## Cc1ccc(C)c(C2=C(OC(=O)C(C)(C)C)C3CCCCC3C2=O)c1 (stereo not drawn) [Compound 31]
Crabgrass; Table II
  Pre-emergent Herbicidal, Crabgrass: 1
Bean
  Post-emergent Herbicidal, Bean: 1
Corn
  Post-emergent Herbicidal, Corn: 2
[1]; Table II
  Pre-emergent Herbicidal, Amaranthus: 1
[2]
  Miticidal, Egg: A
Mustard; Table II
  Pre-emergent Herbicidal, Mustard: 1

## CCCCCCCCCC(=O)OC1=C(c2cc(C)ccc2C)C(=O)C2CCCCC12 (stereo not drawn) [Compound 32]
Crabgrass; Table II
  Pre-emergent Herbicidal, Crabgrass: 1
Bean
  Post-emergent Herbicidal, Bean: 1
Corn
  Post-emergent Herbicidal, Corn: 2
[1]; Table II
  Pre-emergent Herbicidal, Amaranthus: 1
[2]
  Miticidal, Egg: A
Mustard; Table II
  Pre-emergent Herbicidal, Mustard: 1

## CCCCCCCCCCCCCCCC(=O)OC1=C(c2cc(C)ccc2C)C(=O)C2CCCCC12 (stereo not drawn) [Compound 33]
Crabgrass; Table II
  Pre-emergent Herbicidal, Crabgrass: 1
Bean
  Post-emergent Herbicidal, Bean: 1
Corn
  Post-emergent Herbicidal, Corn: 1
[1]; Table II
  Pre-emergent Herbicidal, Amaranthus: 1
[2]
  Miticidal, Egg: A
Mustard; Table II
  Pre-emergent Herbicidal, Mustard: 1

## CCCCCCCCCC(=O)OC1=C(c2ccccc2C)C(=O)C2CCCCC12 (stereo not drawn) [drawing 15]
Crabgrass; Table III
  Pre-emergent Herbicidal, Crabgrass: 3
Bean
  Post Emergent Herbicidal, Bean: 2
Corn
  Post Emergent Herbicidal, Corn: 5
[1]; Table III
  Pre-emergent Herbicidal, Amaranthus: 3
[2]
  LC50: 1 µg/mL (≈ 2.52 µM)
Mustard; Table III
  Pre-emergent Herbicidal, Mustard: 3

## CCCCCCCCCCCCCCCC(=O)OC1=C(c2ccccc2C)C(=O)C2CCCCC12 (stereo not drawn) [drawing 17]
Crabgrass; Table III
  Pre-emergent Herbicidal, Crabgrass: 3
Bean
  Post Emergent Herbicidal, Bean: 1
Corn
  Post Emergent Herbicidal, Corn: 2
[1]; Table III
  Pre-emergent Herbicidal, Amaranthus: 2
[2]
  LC50: 500 µg/mL (≈ 1040 µM)
Mustard; Table III
  Pre-emergent Herbicidal, Mustard: 3

## CCCCCCCCCC(=O)OC1=C(c2cc(C)ccc2C)C(=O)C2CCCCC12 (stereo not drawn) [drawing 19]
Crabgrass; Table III
  Pre-emergent Herbicidal, Crabgrass: 1
Bean
  Post Emergent Herbicidal, Bean: 1
Corn
  Post Emergent Herbicidal, Corn: 2
[1]; Table III
  Pre-emergent Herbicidal, Amaranthus: 1
[2]
  LC50: 8 µg/mL (≈ 19.5 µM)
Mustard; Table III
  Pre-emergent Herbicidal, Mustard: 1

## CCCCC(CC)C(=O)OC1=C(c2ccccc2C)C(=O)CC1 (stereo not drawn) [drawing 21]
Crabgrass; Table III
  Pre-emergent Herbicidal, Crabgrass: 3
Bean
  Post Emergent Herbicidal, Bean: 2
Corn
  Post Emergent Herbicidal, Corn: 2
[1]; Table III
  Pre-emergent Herbicidal, Amaranthus: 3
[2]
  LC50: 125 µg/mL (≈ 398 µM)
Mustard; Table III
  Pre-emergent Herbicidal, Mustard: 1

## CCCCC(CC)C(=O)OC1=C(c2ccccc2C)C(=O)C2CCCCC12 (stereo not drawn) [drawing 22]
Crabgrass; Table III
  Pre-emergent Herbicidal, Crabgrass: 2
Bean
  Post Emergent Herbicidal, Bean: 1
Corn
  Post Emergent Herbicidal, Corn: 5
[1]; Table III
  Pre-emergent Herbicidal, Amaranthus: 2
[2]
  LC50: 5 µg/mL (≈ 13.6 µM)
Mustard; Table III
  Pre-emergent Herbicidal, Mustard: 1

## Cc1ccccc1C1=C(OC(=O)C(C)(C)C)C2CCCCC2C1=O (stereo not drawn) [drawing 24]
Crabgrass; Table III
  Pre-emergent Herbicidal, Crabgrass: 3
Bean
  Post Emergent Herbicidal, Bean: 2
Corn
  Post Emergent Herbicidal, Corn: 5
[1]; Table III
  Pre-emergent Herbicidal, Amaranthus: 2
[2]
  LC50: 16 µg/mL (≈ 49 µM)
Mustard; Table III
  Pre-emergent Herbicidal, Mustard: 3

## CCCCCCCCCC(=O)OC1=C(c2ccccc2C)C(=O)c2ccccc21 [reference compound]
Crabgrass; Table III
  Pre-emergent Herbicidal, Crabgrass: 1
Bean
  Post Emergent Herbicidal, Bean: 1
Corn
  Post Emergent Herbicidal, Corn: 1
[1]; Table III
  Pre-emergent Herbicidal, Amaranthus: 1
[2]
  LC50: 500 µg/mL (≈ 1280 µM)
Mustard; Table III
  Pre-emergent Herbicidal, Mustard: 1

## CCCCCCCCCCCCCCCC(=O)OC1=C(c2ccccc2C)C(=O)c2ccccc21 [reference compound]
Crabgrass; Table III
  Pre-emergent Herbicidal, Crabgrass: 1
Bean
  Post Emergent Herbicidal, Bean: 1
Corn
  Post Emergent Herbicidal, Corn: 1
[1]; Table III
  Pre-emergent Herbicidal, Amaranthus: 1
[2]
  LC50: 60 µg/mL (≈ 126 µM)
Mustard; Table III
  Pre-emergent Herbicidal, Mustard: 1

## CCCCCCCCCC(=O)OC1=C(c2cc(C)ccc2C)C(=O)c2ccccc21 [reference compound]
Crabgrass; Table III
  Pre-emergent Herbicidal, Crabgrass: 1
Bean
  Post Emergent Herbicidal, Bean: 1
Corn
  Post Emergent Herbicidal, Corn: 1
[1]; Table III
  Pre-emergent Herbicidal, Amaranthus: 1
[2]
  LC50: 500 µg/mL (≈ 1240 µM)
Mustard; Table III
  Pre-emergent Herbicidal, Mustard: 1

## CCCCC(CC)C(=O)OC1=C(c2ccccc2C)C(=O)c2ccccc21 (stereo not drawn) [reference compound]
Crabgrass; Table III
  Pre-emergent Herbicidal, Crabgrass: 1
Bean
  Post Emergent Herbicidal, Bean: 1
Corn
  Post Emergent Herbicidal, Corn: 1
[1]; Table III
  Pre-emergent Herbicidal, Amaranthus: 1
[2]
  LC50: 60 µg/mL (≈ 166 µM)
Mustard; Table III
  Pre-emergent Herbicidal, Mustard: 1

## Cc1ccccc1C1=C(OC(=O)C(C)(C)C)c2ccccc2C1=O [reference compound]
Crabgrass; Table III
  Pre-emergent Herbicidal, Crabgrass: 2
Bean
  Post Emergent Herbicidal, Bean: 1
Corn
  Post Emergent Herbicidal, Corn: 1
[1]; Table III
  Pre-emergent Herbicidal, Amaranthus: 2
[2]
  LC50: 270 µg/mL (≈ 843 µM)
Mustard; Table III
  Pre-emergent Herbicidal, Mustard: 2
